{"source": "the NIST ThermoML archive (doi:10.1016/j.fluid.2018.09.024)", "assay": "activity coefficient (dimensionless); of the first substance listed, at infinite dilution; xn = mol fraction of the nth substance listed", "settings": "101.33 kPa, Liquid, Chromatography, x1 = 0", "note": "Numbers after ± are expanded uncertainties."}
{"compound": "C=CCCCCCC", "note": "[oct-1-ene] + CCCCCCCCCCCC[N+](C)(C)CCOc1ccccc1.O=S(=O)([N-]S(=O)(=O)C(F)(F)F)C(F)(F)F", "values": [{"measurement": "activity coefficient", "setting": "318.15 K", "value": "2.97 ± 0.2"}, {"measurement": "activity coefficient", "setting": "328.15 K", "value": "3.06 ± 0.21"}, {"measurement": "activity coefficient", "setting": "338.15 K", "value": "3.14 ± 0.21"}, {"measurement": "activity coefficient", "setting": "348.15 K", "value": "3.23 ± 0.22"}, {"measurement": "activity coefficient", "setting": "358.15 K", "value": "3.32 ± 0.23"}, {"measurement": "activity coefficient", "setting": "368.15 K", "value": "3.39 ± 0.23"}]}
{"compound": "CCCCCCCC", "note": "[octane] + CCCCCCCCCCCC[N+](C)(C)CCOc1ccccc1.N#C[N-]C#N", "values": [{"measurement": "activity coefficient", "setting": "328.15 K", "value": "6.7 ± 0.46"}, {"measurement": "activity coefficient", "setting": "338.15 K", "value": "6.8 ± 0.46"}, {"measurement": "activity coefficient", "setting": "348.15 K", "value": "6.87 ± 0.47"}, {"measurement": "activity coefficient", "setting": "358.15 K", "value": "6.96 ± 0.47"}, {"measurement": "activity coefficient", "setting": "368.15 K", "value": "7.07 ± 0.48"}, {"measurement": "activity coefficient", "setting": "378.15 K", "value": "7.15 ± 0.49"}]}
{"compound": "CCCCCCCC", "note": "[octane] + CCCCCCCCCCCC[N+](C)(C)CCOc1ccccc1.O=S(=O)([N-]S(=O)(=O)C(F)(F)F)C(F)(F)F", "values": [{"measurement": "activity coefficient", "setting": "318.15 K", "value": "4.05 ± 0.28"}, {"measurement": "activity coefficient", "setting": "328.15 K", "value": "4.14 ± 0.28"}, {"measurement": "activity coefficient", "setting": "338.15 K", "value": "4.23 ± 0.29"}, {"measurement": "activity coefficient", "setting": "348.15 K", "value": "4.32 ± 0.29"}, {"measurement": "activity coefficient", "setting": "358.15 K", "value": "4.41 ± 0.3"}, {"measurement": "activity coefficient", "setting": "368.15 K", "value": "4.5 ± 0.31"}]}
{"compound": "CCCCCO", "note": "[pentan-1-ol] + CCCCCCCCCCCC[N+](C)(C)CCOc1ccccc1.N#C[N-]C#N", "values": [{"measurement": "activity coefficient", "setting": "328.15 K", "value": "0.477 ± 0.037"}, {"measurement": "activity coefficient", "setting": "338.15 K", "value": "0.491 ± 0.037"}, {"measurement": "activity coefficient", "setting": "348.15 K", "value": "0.505 ± 0.038"}, {"measurement": "activity coefficient", "setting": "358.15 K", "value": "0.517 ± 0.039"}, {"measurement": "activity coefficient", "setting": "368.15 K", "value": "0.53 ± 0.039"}, {"measurement": "activity coefficient", "setting": "378.15 K", "value": "0.542 ± 0.04"}]}
{"compound": "CCCCCO", "note": "[pentan-1-ol] + CCCCCCCCCCCC[N+](C)(C)CCOc1ccccc1.O=S(=O)([N-]S(=O)(=O)C(F)(F)F)C(F)(F)F", "values": [{"measurement": "activity coefficient", "setting": "318.15 K", "value": "1.34 ± 0.09"}, {"measurement": "activity coefficient", "setting": "328.15 K", "value": "1.31 ± 0.09"}, {"measurement": "activity coefficient", "setting": "338.15 K", "value": "1.27 ± 0.08"}, {"measurement": "activity coefficient", "setting": "348.15 K", "value": "1.24 ± 0.08"}, {"measurement": "activity coefficient", "setting": "358.15 K", "value": "1.22 ± 0.08"}, {"measurement": "activity coefficient", "setting": "368.15 K", "value": "1.19 ± 0.08"}]}
{"compound": "CCCC(C)=O", "note": "[pentan-2-one] + CCCCCCCCCCCC[N+](C)(C)CCOc1ccccc1.N#C[N-]C#N", "values": [{"measurement": "activity coefficient", "setting": "328.15 K", "value": "0.899 ± 0.057"}, {"measurement": "activity coefficient", "setting": "338.15 K", "value": "0.936 ± 0.059"}, {"measurement": "activity coefficient", "setting": "348.15 K", "value": "0.97 ± 0.061"}, {"measurement": "activity coefficient", "setting": "358.15 K", "value": "1 ± 0.06"}, {"measurement": "activity coefficient", "setting": "368.15 K", "value": "1.04 ± 0.07"}, {"measurement": "activity coefficient", "setting": "378.15 K", "value": "1.07 ± 0.07"}]}
{"compound": "CCCC(C)=O", "note": "[pentan-2-one] + CCCCCCCCCCCC[N+](C)(C)CCOc1ccccc1.O=S(=O)([N-]S(=O)(=O)C(F)(F)F)C(F)(F)F", "values": [{"measurement": "activity coefficient", "setting": "318.15 K", "value": "0.386 ± 0.033"}, {"measurement": "activity coefficient", "setting": "328.15 K", "value": "0.41 ± 0.034"}, {"measurement": "activity coefficient", "setting": "338.15 K", "value": "0.434 ± 0.035"}, {"measurement": "activity coefficient", "setting": "348.15 K", "value": "0.458 ± 0.036"}, {"measurement": "activity coefficient", "setting": "358.15 K", "value": "0.481 ± 0.037"}, {"measurement": "activity coefficient", "setting": "368.15 K", "value": "0.503 ± 0.038"}]}
{"compound": "CCC(=O)CC", "note": "[pentan-3-one] + CCCCCCCCCCCC[N+](C)(C)CCOc1ccccc1.N#C[N-]C#N", "values": [{"measurement": "activity coefficient", "setting": "328.15 K", "value": "0.909 ± 0.058"}, {"measurement": "activity coefficient", "setting": "338.15 K", "value": "0.947 ± 0.06"}, {"measurement": "activity coefficient", "setting": "348.15 K", "value": "0.981 ± 0.062"}, {"measurement": "activity coefficient", "setting": "358.15 K", "value": "1.02 ± 0.06"}, {"measurement": "activity coefficient", "setting": "368.15 K", "value": "1.05 ± 0.07"}, {"measurement": "activity coefficient", "setting": "378.15 K", "value": "1.08 ± 0.07"}]}
{"compound": "CCC(=O)CC", "note": "[pentan-3-one] + CCCCCCCCCCCC[N+](C)(C)CCOc1ccccc1.O=S(=O)([N-]S(=O)(=O)C(F)(F)F)C(F)(F)F", "values": [{"measurement": "activity coefficient", "setting": "318.15 K", "value": "0.387 ± 0.034"}, {"measurement": "activity coefficient", "setting": "328.15 K", "value": "0.412 ± 0.034"}, {"measurement": "activity coefficient", "setting": "338.15 K", "value": "0.437 ± 0.035"}, {"measurement": "activity coefficient", "setting": "348.15 K", "value": "0.462 ± 0.036"}, {"measurement": "activity coefficient", "setting": "358.15 K", "value": "0.486 ± 0.037"}, {"measurement": "activity coefficient", "setting": "368.15 K", "value": "0.511 ± 0.038"}]}
{"compound": "CCCO", "note": "[propan-1-ol] + CCCCCCCCCCCC[N+](C)(C)CCOc1ccccc1.N#C[N-]C#N", "values": [{"measurement": "activity coefficient", "setting": "328.15 K", "value": "0.425 ± 0.035"}, {"measurement": "activity coefficient", "setting": "338.15 K", "value": "0.435 ± 0.035"}, {"measurement": "activity coefficient", "setting": "348.15 K", "value": "0.445 ± 0.036"}, {"measurement": "activity coefficient", "setting": "358.15 K", "value": "0.454 ± 0.036"}, {"measurement": "activity coefficient", "setting": "368.15 K", "value": "0.463 ± 0.036"}, {"measurement": "activity coefficient", "setting": "378.15 K", "value": "0.471 ± 0.037"}]}
{"compound": "CCCO", "note": "[propan-1-ol] + CCCCCCCCCCCC[N+](C)(C)CCOc1ccccc1.O=S(=O)([N-]S(=O)(=O)C(F)(F)F)C(F)(F)F", "values": [{"measurement": "activity coefficient", "setting": "318.15 K", "value": "1.28 ± 0.08"}, {"measurement": "activity coefficient", "setting": "328.15 K", "value": "1.24 ± 0.08"}, {"measurement": "activity coefficient", "setting": "338.15 K", "value": "1.2 ± 0.08"}, {"measurement": "activity coefficient", "setting": "348.15 K", "value": "1.17 ± 0.07"}, {"measurement": "activity coefficient", "setting": "358.15 K", "value": "1.14 ± 0.07"}, {"measurement": "activity coefficient", "setting": "368.15 K", "value": "1.11 ± 0.07"}]}
{"compound": "CC(C)O", "note": "[propan-2-ol] + CCCCCCCCCCCC[N+](C)(C)CCOc1ccccc1.N#C[N-]C#N", "values": [{"measurement": "activity coefficient", "setting": "328.15 K", "value": "0.494 ± 0.038"}, {"measurement": "activity coefficient", "setting": "338.15 K", "value": "0.504 ± 0.038"}, {"measurement": "activity coefficient", "setting": "348.15 K", "value": "0.512 ± 0.038"}, {"measurement": "activity coefficient", "setting": "358.15 K", "value": "0.52 ± 0.039"}, {"measurement": "activity coefficient", "setting": "368.15 K", "value": "0.528 ± 0.039"}, {"measurement": "activity coefficient", "setting": "378.15 K", "value": "0.535 ± 0.039"}]}
{"compound": "CC(C)O", "note": "[propan-2-ol] + CCCCCCCCCCCC[N+](C)(C)CCOc1ccccc1.O=S(=O)([N-]S(=O)(=O)C(F)(F)F)C(F)(F)F", "values": [{"measurement": "activity coefficient", "setting": "318.15 K", "value": "1.27 ± 0.08"}, {"measurement": "activity coefficient", "setting": "328.15 K", "value": "1.22 ± 0.08"}, {"measurement": "activity coefficient", "setting": "338.15 K", "value": "1.18 ± 0.08"}, {"measurement": "activity coefficient", "setting": "348.15 K", "value": "1.14 ± 0.07"}, {"measurement": "activity coefficient", "setting": "358.15 K", "value": "1.11 ± 0.07"}, {"measurement": "activity coefficient", "setting": "368.15 K", "value": "1.08 ± 0.07"}]}
{"compound": "CCCc1ccccc1", "note": "[propylbenzene] + CCCCCCCCCCCC[N+](C)(C)CCOc1ccccc1.N#C[N-]C#N", "values": [{"measurement": "activity coefficient", "setting": "328.15 K", "value": "1.71 ± 0.11"}, {"measurement": "activity coefficient", "setting": "338.15 K", "value": "1.77 ± 0.12"}, {"measurement": "activity coefficient", "setting": "348.15 K", "value": "1.83 ± 0.12"}, {"measurement": "activity coefficient", "setting": "358.15 K", "value": "1.89 ± 0.13"}, {"measurement": "activity coefficient", "setting": "368.15 K", "value": "1.96 ± 0.13"}, {"measurement": "activity coefficient", "setting": "378.15 K", "value": "2.01 ± 0.14"}]}
